# Source: patent publication US20250154686A1, “COMPOUND LIBRARY” (CHUGAI SEIYAKU KABUSHIKI KAISHA, priority 2021, published 2025)
# Biological target: T1, Bcl-2 protein (Recombinant Human Bcl-2 Protein) (Homo sapiens, UniProt P10415)
# T1 construct: purchased Novus Biologicals NBP2-34889
# Assay: AS-MS evaluation of binding of the Example 4 mixture library (1200 compounds/well) to Bcl-2, ASMS ratio (%)
# Procedure, shortened: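 A pooled 1200-compound mixture (20 nM each final) was incubated with 20 μM recombinant human Bcl-2 in pH 7.4 Tris-HCl buffer with NaCl, Tween-20 and DTT for 1 h at 23° C. in the dark. Bound ligands were separated by spin-column SEC and measured by reverse-phase LC/MS; ASMS ratio (%) was calculated against protein-free unfiltered standard and protein-free SEC blank.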
# [1] = AS-MS, Example 4 mixture library, Bcl-2, replicate n = 1
# [2] = AS-MS, Example 4 mixture library, Bcl-2, replicate n = 2
# [3] = replicate n = 1, mixture library, value belongs to the MS peak assigned to the compound
# [4] = replicate n = 2, mixture library, value belongs to the MS peak assigned to the compound
# [5] = AS-MS, mixture of 1200 compounds/well, Bcl-2 protein, replicate n = 1
# [6] = AS-MS, mixture of 1200 compounds/well, Bcl-2 protein, replicate n = 2
# T1 sequence (P10415 whole entry): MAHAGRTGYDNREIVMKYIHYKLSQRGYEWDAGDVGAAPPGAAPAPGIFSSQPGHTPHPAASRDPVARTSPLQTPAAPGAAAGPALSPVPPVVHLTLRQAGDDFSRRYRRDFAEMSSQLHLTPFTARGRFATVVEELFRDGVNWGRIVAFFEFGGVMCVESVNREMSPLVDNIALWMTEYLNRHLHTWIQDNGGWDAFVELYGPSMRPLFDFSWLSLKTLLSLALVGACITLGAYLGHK
ASMS ratio (%) n = 1 [1],ASMS ratio (%) n = 2 [2],SMILES,other results
12.3%,−18.5%,"CCOc1cccc(C#Cc2ccccc2CN2CCN(c3ccc(C(=O)NS(=O)(=O)c4ccc(NCCSc5ccccc5)c(C(F)(F)F)c4)cc3)CC2)c1 [Compound B2R069-01, 4-[4-[[2-[2-(3-Ethoxyphenyl)ethynyl]phenyl]methyl]piperazin-1-yl]-N-[4-(2-phenylsulfanylethylamino)-3-(trifluoromethyl)phenyl]sulfonylbenzamide]",–
7.1%,−6.0%,"CCOc1cncc(-c2cc(C(=O)N3CCN(c4ccc(C(=O)NS(=O)(=O)c5ccc(NCCSc6ccccc6)c(C(F)(F)F)c5)cc4)CC3)cc(C(C)(C)C)c2)c1 [Compound B2R038-01, 4-[4-[3-tert-Butyl-5-(5-ethoxypyridin-3-yl)benzoyl]piperazin-1-yl]-N-[4-(2-phenylsulfanylethylamino)-3-(trifluoromethyl)phenyl]sulfonylbenzamide]",–
0.2%,1.4%,"CCOc1cncc(-c2cnn(-c3cc(C(=O)N4CCN(c5ccc(C(=O)NS(=O)(=O)CCC(F)(F)F)cc5)CC4)cc(C(F)(F)F)c3)c2)c1 [Compound B2N044-01, 4-[4-[3-[4-(5-Ethoxypyridin-3-yl)pyrazol-1-yl]-5-(trifluoromethyl)benzoyl]piperazin-1-yl]-N-(3,3,3-trifluoropropylsulfonyl)benzamide]",–
10.8%,−17.7%,"CCOc1cncc(C#Cc2cc(C(=O)N3CCN(c4ccc(C(=O)NS(=O)(=O)c5ccc(NCCSc6ccccc6)c(C(F)(F)F)c5)nn4)CC3)cc(C(F)(F)F)c2)c1 [Compound B2R020-01, 6-[4-[3-[2-(5-Ethoxypyridin-3-yl)ethynyl]-5-(trifluoromethyl)benzoyl]piperazin-1-yl]-N-[4-(2-phenylsulfanylethylamino)-3-(trifluoromethyl)phenyl]sulfonylpyridazine-3-carboxamide]",–
0.0%,0.0%,"CCOc1cncc(-c2ccc(CN3CCN(c4ccc(C(=O)NS(=O)(=O)CCC(F)(F)F)cc4)CC3)c(OC)c2)c1 [Compound B2N054-01, 4-[4-[[4-(5-Ethoxypyridin-3-yl)-2-methoxyphenyl]methyl]piperazin-1-yl]-N-(3,3,3-trifluoropropylsulfonyl)benzamide]",–
–,–,"CCOc1cncc(-c2cc(C(=O)N3CCN(c4ccc(C(=O)NS(=O)(=O)C(C)(C)C)nn4)CC3)cc(C(F)(F)F)c2)c1 [Compound B2L018-01, N-tert-Butylsulfonyl-6-[4-[3-(5-ethoxypyridin-3-yl)-5-(trifluoromethyl)benzoyl]piperazin-1-yl]pyridazine-3-carboxamide]",ASMS ratio (%) n = 1 [3]: −1.9%; ASMS ratio (%) n = 2 [4]: −2.5%
0.0%,0.4%,"CCOc1cncc(-c2ccc(C(=O)N3CCN(c4ccc(C(=O)NS(=O)(=O)CCC(F)(F)F)cc4)CC3)c3ccccc23)c1 [Compound B2N036-01, 4-[4-[4-(5-Ethoxypyridin-3-yl)naphthalene-1-carbonyl]piperazin-1-yl]-N-(3,3,3-trifluoropropylsulfonyl)benzamide]",–
0.0%,0.0%,"CCOc1cccc(-c2ccccc2CN2CCN(c3ccc(C(=O)NS(=O)(=O)CCC(F)(F)F)nn3)CC2)c1 [Compound B2N071-01, 6-[4-[[2-(3-Ethoxyphenyl)phenyl]methyl]piperazin-1-yl]-N-(3,3,3-trifluoropropylsulfonyl)pyridazine-3-carboxamide]",–
–,–,CCOc1cccc(-c2csc(CN3CCN(c4ccc(C(=O)NS(=O)(=O)C(C)(C)C)cc4)CC3)c2)c1 [Compound B2L067-01],ASMS ratio (%) n = 1 [3]: 0.0%; ASMS ratio (%) n = 2 [4]: 0.0%
–,–,"CCOc1cccc(-c2ccccc2CN2CCN(c3ccc(C(=O)NS(C)(=O)=O)cc3)CC2)c1 [Compound B2I045-01, 4-[4-[[2-(3-Ethoxyphenyl)phenyl]methyl]piperazin-1-yl]-N-methylsulfonylbenzamide]",ASMS ratio (%) n = 1 [3]: −0.3%; ASMS ratio (%) n = 2 [4]: 0.2%
3.4%,6.0%,"CCOc1cncc(C#Cc2cc(C(=O)N3CCN(c4ccc(C(=O)NS(=O)(=O)c5ccc(NCCSc6ccccc6)c(C(F)(F)F)c5)cc4)CC3)cc(C(F)(F)F)c2)c1 [Compound B2R042-01, 4-[4-[3-[2-(5-Ethoxypyridin-3-yl)ethynyl]-5-(trifluoromethyl)benzoyl]piperazin-1-yl]-N-[4-(2-phenylsulfanylethylamino)-3-(trifluoromethyl)phenyl]sulfonylbenzamide]",–
–,–,"CCOc1cccc(-c2cc(OC)c(CN3CCN(c4ccc(C(=O)NS(C)(=O)=O)cc4)CC3)c(OC)c2)c1 [Compound B2I059-01, 4-[4-[[4-(3-Ethoxyphenyl)-2,6-dimethoxyphenyl]methyl]piperazin-1-yl]-N-methylsulfonylbenzamide]",ASMS ratio (%) n = 1 [3]: 0.0%; ASMS ratio (%) n = 2 [4]: 0.0%
16.0%,−1.3%,"CCOc1cncc(-c2ccc(CN3CCN(c4ccc(C(=O)NS(=O)(=O)c5ccc(NCCSc6ccccc6)c(C(F)(F)F)c5)nn4)CC3)c3ccccc23)c1 [Compound B2R092-01, 6-[4-[[4-(5-Ethoxypyridin-3-yl)naphthalen-1-yl]methyl]piperazin-1-yl]-N-[4-(2-phenylsulfanylethylamino)-3-(trifluoromethyl)phenyl]sulfonylpyridazine-3-carboxamide]",–
–,–,"CCOc1cccc(-c2ccc(CN3CCN(c4ccc(C(=O)NS(C)(=O)=O)nn4)CC3)cc2F)c1 [Compound B2I077-01, 6-[4-[[4-(3-Ethoxyphenyl)-3-fluorophenyl]methyl]piperazin-1-yl]-N-methylsulfonylpyridazine-3-carboxamide]",ASMS ratio (%) n = 1 [3]: 0.0%; ASMS ratio (%) n = 2 [4]: 0.0%
4.2%,−7.4%,"CCOc1cncc(-c2cc(CN3CCN(c4ccc(C(=O)NS(=O)(=O)c5ccc(NCCSc6ccccc6)c(C(F)(F)F)c5)cc4)CC3)cc(OC(F)(F)F)c2)c1 [Compound B2R064-01, 4-[4-[[3-(5-Ethoxypyridin-3-yl)-5-(trifluoromethoxy)phenyl]methyl]piperazin-1-yl]-N-[4-(2-phenylsulfanylethylamino)-3-(trifluoromethyl)phenyl]sulfonylbenzamide]",–
–,–,CCCNC(=O)c1ccc(N2CCN(Cc3ccc(-c4cncc(OCC)c4)c(F)c3)CC2)nn1 [Compound B1M078-01],ASMS ratio (%) n = 1 [5]: 0.0%; ASMS ratio (%) n = 2 [6]: 0.0%
–,–,CCCNC(=O)c1ccc(N2CCN(C(=O)c3cc(C#Cc4cncc(OCC)c4)cc(C(F)(F)F)c3)CC2)nn1 [Compound B1M020-01],ASMS ratio (%) n = 1 [5]: 0.0%; ASMS ratio (%) n = 2 [6]: 0.0%
6.6%,−7.8%,"CCOc1cccc(-c2ccc(CN3CCN(c4ccc(C(=O)NS(=O)(=O)c5ccc(NCCSc6ccccc6)c(C(F)(F)F)c5)cc4)CC3)cc2C)c1 [Compound B2R047-01, 4-[4-[[4-(3-Ethoxyphenyl)-3-methylphenyl]methyl]piperazin-1-yl]-N-[4-(2-phenylsulfanylethylamino)-3-(trifluoromethyl)phenyl]sulfonylbenzamide]",–
